Laboratory results: patent US20220304955A1 (Nacuity Pharmaceuticals, Inc., priority 2021, published 2022)
Structures can show the parent of a compound that is named as a salt. Positions of bridges follow the written chain, without caps; N, C: chain ends. Non-standard residues stand in square brackets, D forms with d. Residues, ends and D or L forms follow the SMILES beside them. *: point of attachment. Ileψ(thiazoline)Cys = CC[C@H](C)[C@H](N)C1=N[C@H](C(=O)*)CS1; dOrn = NCCC[C@@H](N)C(=O)O

Key:
[1] = system: C. elegans; assay: Diethyl maleate (DEM) assay, survival of C. elegans; assay type: in vivo, Caenorhabditis elegans; settings: for % alive: then 10 mM DEM, scored at 24 hours
Procedure: Materials and Methods. Effects of NAC, NACA and diNACA on diethyl maleate (DEM; Sigma-Aldrich)-induced toxicity in C. elegans was evaluated. (10 mM DEM alone conjugates GSH causing 50% depletion of GSH and 50% lethality after 24 hour exposure (Jenkins et al., 2020)). DEM was added to neat DMSO and added to molten NGM at 55° C. to a final concentration of 10 mM DEM and 0.5% v/v DMSO. Plates were seeded with E. coli strain OP50. Data were collected at 25 (±1) ° C. using the temperature sensitive-sterile strain TJ1060. A synchronous population was obtained by transferring egg-laying adults to fresh plates at 16° C. for 2-3 hours. The adults were removed and the plates with eggs then transferred to 25° C. to ensure sterility. After 48 hours at 25° C., when worms were at the late L4/young adult stage, 70 nematodes were transferred to fresh plates containing either vehicle control, 1 mM NAC, 10 mM NAC, 1 mM NACA, 10 mM NACA, 1 mM diNACA, 10 mM diNACA (all with 1.0% v/v DMSO). Worms were aged at 25° C. for a further 4 days and then transferred to DEM plates, 35-45 per plate, two plates per treatment. Survival, determined by touch-provoked movement, was scored at 24 hours after exposure to DEM.

[2] = system: Caenorhabditis elegans; assay: Caenorhabditis elegans Lifespan assay; assay type: in vivo; settings: for Median survival: from late L4 larval/young adult stage, 25 °C, strain TJ1060
Procedure: NAC and NACA were dissolved in sterile water then added to the molten NGM at 55° C. Media containing equivalent vehicle alone (1% v/v DMSO) was used for comparison. 1% v/v DMSO was also added to NAC and NACA plates for consistency, as DMSO itself may affect lifespan. Standard overnight culture of the Escherichia coli strain OP50 was used as the food source. Lifespan data were collected at 25 (±1) ° C. using the temperature sensitive-sterile strain TJ1060 [spe-9(hc88); rrf-3(b26)] as a proxy for wildtype. A developmentally synchronous population was obtained by transferring egg-laying adults to fresh plates at 16° C. for 4 hours. The adults were removed and the plates with eggs then transferred to 25° C. to ensure sterility. After 48 hours at 25° C., when worms were at the late L4 larval/young adult stage, 25-35 nematodes were transferred to fresh plates containing either vehicle control (1% v/v DMSO), 1 mM NAC, 10 mM NAC, 1 mM NACA, 10 mM NACA, 1 mM diNACA, and 10 mM diNACA. All plates were coded to allowing blinding of the experimenter to the treatment regime during scoring. Nematodes were scored for survival at 1 to 2-day intervals and transferred to freshly prepared plates as needed (every 2-4 days). Worms lost not due to death were recorded as censored.
Results. Data was analyzed using GraphPad Prism 9, with survival curves compared using a long-rank (Mantel-Cox) test. P values are given for pair-wise comparisons to the vehicle control population.

[3] = system: N27 cells; assay: Cellular ferroptosis assay, cell viability by MTT; assay type: cell-based, rat; settings: for preventing ferroptosis, NAC compared with NACA: 50 μM in media or PBS, erastin 0.1-8 μM, RSL3 3-400 nM or glutamate 3-400 mM, 24 hr; for anti-ferroptotic activity on pretreatment prior to ferroptosis induction: 50 or 500 μM in PBS for 24 hours, then erastin, RSL3 or glutamate for additional 24 hours; for prevention of ferroptosis induced by erastin, RSL3 and glutamate (cell viability): erastin 2 μM, RSL3 100 nM or glutamate 100 mM, added at same time, liproxstatin-1 4-250 nM, NAC, NACA (in water), diNACA (in NMP) 8-500 μM; for anti-ferroptotic activity on post-treatment: erastin, RSL3 or glutamate for 5 hours, then 50 or 500 μM in PBS for additional 19 hours
Procedure: Materials and Methods. […] Cells were cultured at 37° C. with 5% CO2.

[4] = system: C. elegans; settings: Drug Age Database listing; cited from earlier work
[5] = humans, oral dose of 600 mg; cited from earlier work
[6] = system: N27 cells; settings: for solvent concentration over which cell viability is reduced: rat, 24 h
Procedure: Viability of cells treated with water, dimethyl sulfoxide (DMSO) or NMP (0.3-20% v/v) for 24 hours. Data are means±SEM, n=3.
Materials and Methods. […] N27 cells, derived from E12 rat mesencephalic tissue (Merck, Australia), were cultured in RPMI 1640 media (ThermoFisher Scientific) supplemented with 10% fetal calf serum (Bovogen, Australia) and penicillin and streptomycin (ThermoFisher Scientific, Australia). Cells were cultured at 37° C. with 5% CO2. Cellular ferroptosis assays were used to evaluate anti-ferroptotic activity of test articles (Southon et al., 2019). Liproxstatin-1 (lip1) was used as an anti-ferroptotic control. […] Cell viability was measured by 3-[4,5-dimethylthiazol-2-yl]-2,5-diphenyltetrazolium bromide (MTT) assay, absorbance measured at 570 nm using a PowerWave XS microplate spectrophotometer (BioTek Instruments, Winooski, USA), and expressed as a percentage of control cells (Southon et al., 2019).
The toxicity profile of solvents NMP, DMSO and water were evaluated in N27 cells (FIG. 2).

[7] = system: C. elegans; settings: 10 mM DEM alone, 24 hour exposure; cited from earlier work
[8] = Solubility of diNACA in solvents; assay type: physicochemical
[9] = Bioavailability after oral administration in rat (plasma levels); assay type: in vivo
Procedure: Materials and Methods. Bioavailability of diNACA after oral administration in rat was evaluated. NACA and diNACA, separately, were suspended in phosphate-buffered saline (pH 7) and dosed to rats by oral gavage. Blood specimens were collected and processed to produce plasma. Plasma specimens were analyzed for NAC, NACA and diNACA concentration.
The thiol moiety of NAC, NACA, or diNACA and their respective internal standards oxidizes quickly in plasma through formation of disulfides. In order to determine total NAC and total NACA levels in plasma, tris(2-carboxyethyl)phosphine (TCEP) is added during the extraction to reduce disulfide bonds. Ammonium bicarbonate is added to control sample pH near neutral, as TCEP will otherwise acidify the aliquoted samples and hinder derivatization. The free analyte is then derivatized to a stable thioether using 2-chloro-1-methylpyridinium iodide (CMPI). […]
Thioether derivatives of NAC and NACA for LCMS analyses. Samples were analyzed on a Waters Acquity liquid chromatograph interfaced with a Thermo Scientific TSQ Vantage triple quadrupole mass spectrometer with ESI ionization. […]

CC(=O)N[C@@H](CS)C(N)=O
rescue from DEM-induced toxicity ([1]; 1 mM): rescue
% alive ([1]; 1 mM pre-treatment 4 days): 91%
rescue from DEM-induced toxicity ([1]; 10 mM): rescue
% alive ([1]; 10 mM pre-treatment 4 days): 98%
increase in lifespan ([2]; 1 mM): minor increase
Median survival ([2]; 1 mM in NGM): 10 days
increase in lifespan ([2]; 10 mM): marked increase in lifespan
Median survival ([2]; 10 mM in NGM): 16 days
preventing ferroptosis, NAC compared with NACA [3]: similarly effective at preventing ferroptosis
anti-ferroptotic activity on pretreatment prior to ferroptosis induction [3]: did not differentiate anti-ferroptotic activity
prevention of ferroptosis induced by erastin, RSL3 and glutamate (cell viability) ([3]; 24 hours): efficacy in the micromolar range
anti-ferroptotic activity on post-treatment [3]: did not differentiate anti-ferroptotic activity

CC(=O)N[C@@H](CS)C(=O)O [NAC, N-acetylcysteine, reference compound]
life extension of C. elegans [4]: 64%
plasma half-life [5]: 2.5 h
time after administration at which no NAC is detectable [5]: 10 to 12 h
% alive ([1]; 1 mM pre-treatment 4 days): 80%
rescue from DEM-induced toxicity ([1]; 10 mM): rescue
% alive ([1]; 10 mM pre-treatment 4 days): 89%
Median survival ([2]; 1 mM in NGM): 10 days
increase in lifespan ([2]; 10 mM): minor increase
Median survival ([2]; 10 mM in NGM): 10 days
preventing ferroptosis, NAC compared with NACA [3]: similarly effective at preventing ferroptosis
anti-ferroptotic activity on pretreatment prior to ferroptosis induction [3]: did not differentiate anti-ferroptotic activity
prevention of ferroptosis induced by erastin, RSL3 and glutamate (cell viability) ([3]; 24 hours): efficacy in the micromolar range
anti-ferroptotic activity on post-treatment [3]: did not differentiate anti-ferroptotic activity

C[S+](C)[O-] [DMSO, dimethyl sulfoxide]
solvent concentration over which cell viability is reduced [6]: over 1.3%

CC(=O)Nc1ccc(O)cc1 [acetaminophen]
life extension of C. elegans [4]: 66%

CCOC(=O)/C=C\C(=O)OCC [DEM, diethyl maleate]
depletion of GSH [7]: 50%
lethality [7]: 50%

Clc1cccc(CN=C2Nc3ccccc3NC23CCNCC3)c1 [Lip1, Liproxstatin-1, reference compound]
prevention of ferroptosis induced by erastin, RSL3 and glutamate (cell viability) ([3]; 24 hours): nanomolar efficacy

CC[C@H](C)[C@H](N)C1=N[C@H](C(=O)N[C@@H](CC(C)C)C(=O)N[C@H](CCC(=O)O)C(=O)N[C@H](C(=O)N[C@H]2CCCCNC(=O)[C@H](CC(N)=O)NC(=O)[C@@H](CC(=O)O)NC(=O)[C@H](Cc3cnc[nH]3)NC(=O)[C@@H](Cc3ccccc3)NC(=O)[C@H]([C@@H](C)CC)NC(=O)[C@@H](CCCN)NC2=O)[C@@H](C)CC)CS1 [bacitracin] ({Ileψ(thiazoline)Cys}-L[dE]IK[dOrn]I[dF]H[dD]N; lactam 4-C)
life extension of C. elegans [4]: 74%

O [Water, water]
effect of solvent on cell viability [6]: did not reduce cell viability

CN1CCCC1=O [NMP, N-methyl pyrrolidone]
solvent concentration over which cell viability is reduced [6]: over 0.3%

Cc1ccc2c(c1)sc(-c1ccc(N(C)C)cc1)[n+]2C.[Cl-] [thioflavin T]
life extension of C. elegans [4]: 78%

CC(=O)N[C@@H](CSSC[C@H](NC(C)=O)C(N)=O)C(N)=O [diNACA, (2R,2R′)-3,3′-disulfanediyl bis(2-acetamidopropanamide)]
solubility in water or DMSO ([8]; Nacuity data on file): not soluble in water or DMSO
solubility in neat DMSO ([8]; suspension, dissolved upon addition to NGM): not fully soluble in DMSO
metabolism, plasma levels of NACA and NAC ([9]; 200 mg/kg oral diNACA compared with oral NACA): metabolized to NACA and NAC to yield greater levels for longer periods of time compared to oral dosing with NACA
absorption after oral administration ([9]; 200 mg/kg oral gavage, suspension in PBS pH 7): well absorbed
rescue from DEM-induced toxicity ([1]; 1 mM): rescue
% alive ([1]; 1 mM pre-treatment 4 days): 95%
rescue from DEM-induced toxicity ([1]; 10 mM): rescue
% alive ([1]; 10 mM pre-treatment 4 days): 98%
increase in lifespan ([2]; 1 mM): marked increase in lifespan
Median survival ([2]; 1 mM in NGM): 18 days
increase in lifespan ([2]; 10 mM): marked increase in lifespan
Median survival ([2]; 10 mM in NGM): 18 days
lifespan of C. elegans relative to control ([2]; FIG. 8): more than doubled the lifespan
percentage lifespan extension, increase in median lifespan ([2]; versus control): 125%
anti-ferroptotic activity on pretreatment prior to ferroptosis induction [3]: did not differentiate anti-ferroptotic activity
concentration at which a small effect on RSL3 toxicity is seen ([3]; diNACA solubilized in media (2-75 mM), RSL3 100 nM, 24 hours): 75 mM
concentration partially preventing erastin and glutamate-induced toxicity ([3]; diNACA solubilized in media (2-75 mM), erastin 2 μM or glutamate 100 mM, 24 hours): ≥ 5 mM
prevention of ferroptosis induced by erastin, RSL3 and glutamate (cell viability) ([3]; 24 hours): did not prevent ferroptosis
anti-ferroptotic activity on post-treatment [3]: did not differentiate anti-ferroptotic activity
